Measured values taken from paper PMC11558128 (Advanced Science, 2024).
Positions of bridges follow the written chain, without caps; N, C: chain ends. Residues, ends and D or L forms follow the SMILES beside them.

Assays:
[1] = system: other Kv channels (hKv1.1-1.5, rKv2.1, hKv3.1-3.4, mKv4.1, hKv7.2 and hERG)
[2] = target: T1, hNav1.7 (Homo sapiens, UniProt Q15858); design: method as in 2 sources, one per row (each row's own in cited_ref): ref 11c (a number printed in a supplementary file, which may have a reference list of its own: not looked up in the article's list) ||| ref 11c = [11]; PMID 27129258; doi:10.1074/jbc.M116.725978; 11 a) G. L. Adams , P. S. Pall , S. M. Grauer , X. Zhou , J. E. Ballard , M. Vavrek , R. L. Kraus , P. Morissette , N. Li , S. Colarusso , E. Bianchi , A. Palani , R. Klein , C. T. John , D. Wang , M.; conditions: vs HNTX-III; ref 11c; cited from earlier work
T1 construct: expressed in transfected cells; host or cells: HEK293T
T1 sequence (O60939 30-215): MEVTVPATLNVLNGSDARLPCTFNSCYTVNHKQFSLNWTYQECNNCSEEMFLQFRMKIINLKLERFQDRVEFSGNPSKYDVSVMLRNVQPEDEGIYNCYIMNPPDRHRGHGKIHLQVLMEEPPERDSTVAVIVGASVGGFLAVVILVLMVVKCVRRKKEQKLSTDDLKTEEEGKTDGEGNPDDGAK
T1 sequence (Q15858 other isoform, or with tags, fused parts or gaps): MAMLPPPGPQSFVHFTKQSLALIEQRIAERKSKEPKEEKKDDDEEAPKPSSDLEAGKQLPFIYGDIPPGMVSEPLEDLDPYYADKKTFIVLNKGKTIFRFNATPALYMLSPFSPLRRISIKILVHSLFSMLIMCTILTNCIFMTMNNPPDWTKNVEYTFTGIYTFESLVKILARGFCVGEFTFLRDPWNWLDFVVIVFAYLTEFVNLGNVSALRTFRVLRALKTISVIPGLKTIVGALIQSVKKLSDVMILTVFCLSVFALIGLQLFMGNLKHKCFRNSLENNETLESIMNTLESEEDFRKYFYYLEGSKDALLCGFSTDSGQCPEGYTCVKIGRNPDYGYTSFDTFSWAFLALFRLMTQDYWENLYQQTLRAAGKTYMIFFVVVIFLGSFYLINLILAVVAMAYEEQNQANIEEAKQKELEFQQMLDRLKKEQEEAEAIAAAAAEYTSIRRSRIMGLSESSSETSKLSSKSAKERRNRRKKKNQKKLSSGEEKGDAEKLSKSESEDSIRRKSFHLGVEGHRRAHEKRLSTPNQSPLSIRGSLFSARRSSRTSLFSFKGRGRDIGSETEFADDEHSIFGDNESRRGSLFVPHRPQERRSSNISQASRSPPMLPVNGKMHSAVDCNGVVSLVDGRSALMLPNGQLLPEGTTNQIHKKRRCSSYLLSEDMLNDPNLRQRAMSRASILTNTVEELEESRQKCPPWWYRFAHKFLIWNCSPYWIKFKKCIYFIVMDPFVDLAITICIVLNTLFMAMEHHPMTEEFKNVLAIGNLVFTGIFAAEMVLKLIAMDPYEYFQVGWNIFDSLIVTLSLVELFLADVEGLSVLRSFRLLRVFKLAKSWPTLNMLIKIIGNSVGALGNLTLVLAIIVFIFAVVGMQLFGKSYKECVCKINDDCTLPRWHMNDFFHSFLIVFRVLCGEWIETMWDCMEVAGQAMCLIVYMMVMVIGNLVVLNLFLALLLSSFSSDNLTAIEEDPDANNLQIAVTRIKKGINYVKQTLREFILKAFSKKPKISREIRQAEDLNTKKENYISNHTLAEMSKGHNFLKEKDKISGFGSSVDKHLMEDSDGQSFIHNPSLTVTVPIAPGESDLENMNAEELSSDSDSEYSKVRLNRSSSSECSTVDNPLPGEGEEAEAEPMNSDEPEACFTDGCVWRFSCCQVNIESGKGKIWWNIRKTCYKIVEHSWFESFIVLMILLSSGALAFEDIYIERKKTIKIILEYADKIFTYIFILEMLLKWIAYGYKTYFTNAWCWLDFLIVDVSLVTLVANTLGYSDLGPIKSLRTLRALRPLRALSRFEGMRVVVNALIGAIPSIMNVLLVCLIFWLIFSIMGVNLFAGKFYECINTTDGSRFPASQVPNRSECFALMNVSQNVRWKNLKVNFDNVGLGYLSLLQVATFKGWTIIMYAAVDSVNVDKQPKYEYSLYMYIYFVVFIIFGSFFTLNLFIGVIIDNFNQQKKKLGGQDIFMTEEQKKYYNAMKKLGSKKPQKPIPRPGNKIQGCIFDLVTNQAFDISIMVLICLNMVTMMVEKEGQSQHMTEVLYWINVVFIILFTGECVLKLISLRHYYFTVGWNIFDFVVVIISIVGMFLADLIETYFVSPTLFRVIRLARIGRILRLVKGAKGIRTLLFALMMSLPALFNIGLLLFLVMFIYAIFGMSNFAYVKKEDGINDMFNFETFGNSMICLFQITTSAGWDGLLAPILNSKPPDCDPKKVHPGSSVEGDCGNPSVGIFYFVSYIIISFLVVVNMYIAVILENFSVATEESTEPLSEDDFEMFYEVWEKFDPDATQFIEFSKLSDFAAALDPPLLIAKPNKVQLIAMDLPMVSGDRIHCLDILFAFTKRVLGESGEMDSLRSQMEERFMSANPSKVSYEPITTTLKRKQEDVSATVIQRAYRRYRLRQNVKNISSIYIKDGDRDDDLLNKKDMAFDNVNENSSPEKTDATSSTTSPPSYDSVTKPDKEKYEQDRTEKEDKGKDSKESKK
T1 sequence (Q07699 19-218, further chain): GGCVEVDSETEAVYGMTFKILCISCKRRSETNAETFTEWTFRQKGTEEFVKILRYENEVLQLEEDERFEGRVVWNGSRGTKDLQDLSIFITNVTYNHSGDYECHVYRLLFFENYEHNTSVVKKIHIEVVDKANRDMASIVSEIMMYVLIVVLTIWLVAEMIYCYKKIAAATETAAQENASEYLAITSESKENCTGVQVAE

[3] = target: T2, rKv4.3 (Rattus norvegicus, UniProt Q62897); assay: cell-based; conditions: vs HNTX-III
T2 construct: expressed in transfected cells; host or cells: HEK293T
T2 sequence (Q62897 1-655): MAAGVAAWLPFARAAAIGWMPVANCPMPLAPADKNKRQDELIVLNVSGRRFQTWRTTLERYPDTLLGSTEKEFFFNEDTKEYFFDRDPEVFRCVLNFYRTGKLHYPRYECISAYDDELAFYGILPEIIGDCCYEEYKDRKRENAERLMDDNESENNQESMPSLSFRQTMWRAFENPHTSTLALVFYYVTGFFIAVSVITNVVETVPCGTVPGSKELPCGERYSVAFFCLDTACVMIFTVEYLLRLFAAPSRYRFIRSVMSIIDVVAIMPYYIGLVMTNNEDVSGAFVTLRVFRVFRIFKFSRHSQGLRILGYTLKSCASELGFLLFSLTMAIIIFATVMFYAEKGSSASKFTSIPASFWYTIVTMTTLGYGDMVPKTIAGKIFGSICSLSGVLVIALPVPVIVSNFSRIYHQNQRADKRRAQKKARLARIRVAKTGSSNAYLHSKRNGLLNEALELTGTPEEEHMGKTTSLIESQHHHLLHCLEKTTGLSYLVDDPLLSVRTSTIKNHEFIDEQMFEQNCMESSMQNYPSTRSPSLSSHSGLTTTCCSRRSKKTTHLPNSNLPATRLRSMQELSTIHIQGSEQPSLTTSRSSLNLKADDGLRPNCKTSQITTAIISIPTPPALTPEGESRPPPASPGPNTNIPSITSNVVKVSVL

[4] = system: C57BL/6 mice; assay: Spared nerve injury (SNI) neuropathic pain model; conditions: mouse, in vivo, ip
Experimental: In the spared nerve injury (SNI) neuropathic pain model,^[ [39] ^] C57BL/6 mice (weight 18–20 g, 6–8 weeks, both sex) were anesthetized with 3% halothane. The thigh was incised parallel to the femur, and the muscles were bluntly separated to expose the sciatic nerve. The sciatic nerve is ligated with 6.0 silk sutures. […] The paw withdrawal threshold to mechanical stimuli is measured between 0 and 180 min after drug administration.

[5] = system: C57BL/6 mice; assay: CFA-induced inflammatory pain model (von Frey paw withdrawal threshold); conditions: mouse, in vivo
Experimental: In the Complete Freund's adjuvant (CFA)–induced inflammatory pain modelinflammation is induced by injecting 15 µL of CFA into the intraplantar surface of the right hind paw of C57BL/6 mice (weight 18–20 g, 6–8 weeks, both sex).^[ [38] ^] Mechanical paw withdrawal thresholds are then measured using manual von Frey (Stoelting Co) after 2 days of CFA injection.

## CC[C@H](C)[C@H](NC(=O)[C@H](CCCCN)NC(=O)[C@H](Cc1ccc(O)cc1)NC(=O)[C@H](CCCCN)NC(=O)[C@@H]1CSSC[C@@H]2NC(=O)[C@H](CCC(=O)O)NC(=O)[C@H](CC(=O)O)NC(=O)[C@H](CCCCN)NC(=O)CNC(=O)[C@@H]3CCCN3C(=O)[C@H]([C@@H](C)O)NC(=O)[C@@H]3CSSC[C@H](NC(=O)[C@H](C(C)C)NC(=O)[C@H](Cc4c[nH]cn4)NC(=O)[C@H](CC(N)=O)NC(=O)[C@@H]4CCCN4C(=O)[C@H](CSSC[C@H](NC(=O)[C@H](C)N)C(=O)N[C@@H](CCCCN)C(=O)NCC(=O)N[C@@H]([C@@H](C)CC)C(=O)N[C@@H](Cc4ccccc4)C(=O)N[C@@H](C(C)C)C(=O)N[C@@H]([C@@H](C)O)C(=O)N3)NC2=O)C(=O)N[C@@H](CO)C(=O)N[C@@H](CO)C(=O)N[C@@H](CCCCN)C(=O)N[C@@H](Cc2c[nH]cn2)C(=O)N[C@@H](CCCCN)C(=O)N[C@@H](Cc2c[nH]c3ccccc23)C(=O)N1)C(N)=O [Cl6b] (H-ACKGIFVTCTPGKDECCPNHVCSSKHKWCKYKI-NH2; disulfide 2-17, 9-22, 16-29)
[1]
  effect on the current traces of other Kv channels: no obvious or only minimal effect

## CC(C)C[C@@H]1NC(=O)[C@H](Cc2ccc(O)cc2)NC(=O)[C@H](CC(N)=O)NC(=O)[C@H](CCCCN)NC(=O)[C@@H]2CSSC[C@H](NC(=O)CNC(=O)[C@@H](N)CCCCN)C(=O)N[C@@H](CCCCN)C(=O)NCC(=O)N[C@@H](Cc3ccccc3)C(=O)NCC(=O)N[C@@H](CC(=O)O)C(=O)N[C@@H](CO)C(=O)N[C@H]3CSSC[C@H](NC1=O)C(=O)N[C@@H](CO)C(=O)N[C@@H](CO)C(=O)N[C@@H](CCCCN)C(=O)N[C@@H](Cc1c[nH]cn1)C(=O)N[C@@H](CCCCN)C(=O)N[C@@H](Cc1c[nH]c4ccccc14)C(=O)N[C@H](C(=O)N[C@@H](CCCCN)C(=O)N[C@H](C(=O)N[C@@H](Cc1ccc(O)cc1)C(=O)N[C@@H](CC(C)C)C(=O)N[C@H](C(N)=O)C(C)C)C(C)C)CSSC[C@H](NC(=O)[C@H](CCC(=O)O)NC(=O)[C@H](CC(N)=O)NC(=O)[C@H](CCCCN)NC(=O)CNC(=O)[C@@H]1CCCN1C(=O)[C@H]([C@@H](C)O)NC3=O)C(=O)N2 [HNTX-III-H4] (H-KGCKGFGDSCTPGKNECCKNYLCSSKHKWCKVYLV-NH2; disulfide 3-18, 10-23, 17-30; N-terminus and C-terminus assumed)
[2]
  improved potency on hNav1.7 currents: 30 fold
[3]
  improved potency for rKv4.3: 45 fold

## CN1CC[C@]23c4c5ccc(O)c4O[C@H]2[C@@H](O)C=C[C@H]3[C@H]1C5 [morphine]
[4]
  mechanical allodynia induced by SNI compared with the saline group: significantly decreased
[5]
  duration of anti-allodynic effect, CFA model: 2 h
